# According to US20260015632A1, “CULTURE MEDIUM COMBINATION FOR INDUCING DIFFERENTIATION OF PLURIPOTENT STEM CELLS INTO CD34+ HEMATOPOIETIC STEM/PROGENITOR CELLS” (SHENZHEN CELL INSPIRE BIOTECHNOLOGY CO., LTD., priority 2023, published 2026):
# Tests used:
# Type in all cases: cell-based, human
# iPSCs [1] = test: Optimization of iNK purity and yield, flow cytometry CD56/CD45 and fold expansion; parameters: yield of HSPCs / yield of iNK cells differentiated from these HSPCs: dose or concentration left out as unconfirmed; conditions: for proliferation rate of iNK cells: concentrations and media as in Example 5; for proportion of CD56+ or CD45+ cells / yield of iNK cells: added to fourth differentiation medium: NAD+, 0.1 ng/mL HLA-C, 1000 IU IL-2 or 15 μM SB203580
# Method: To further improve the differentiation efficiency and cytotoxicity of the obtained NK cells, UM171 was added to the second differentiation medium. […] The expression levels of CD56 and CD45 of the obtained NK cells and the cell fold expansion were measured by flow cytometry.
# (§1) The cell expansion at the HSPC stage and the NK stage was calculated by dividing the number of suspension cells obtained at the sampling time point by the initial number of iPSCs at the spheroidization stage. The cell number was determined using the Countess™ 2 automated cell counter, and specific operating procedures can be found in the instrument's instructions.
# iPSCs [2] = test: qPCR marker expression on Day 3 of iPSC differentiation, optimization of first differentiation medium; conditions: Day 3 of differentiation, 50 ng/mL BMP4, 10 μM CHIR99021; for expression of OCT4: added to first differentiation medium (mTeSR1+5 μM Y27632), alone or combined; for expression of early mesoderm and mesoderm markers (MIXL1 and T) / expression of hemogenic endothelial lineage-related markers (KDR, SCL) / expression of the HSPC marker (CD34): added to first differentiation medium
# Method: iPSCs were aggregated into spheroids by either static spheroidization or shaking spheroidization. • 1) Static spheroidization. An appropriate number of iPSCs in a single-cell state were transferred to an AggreWell™ microwell plate, and subsequent operations were carried out according to the AggreWell™ 400 or AggreWell™ 800 instructions. Briefly, the concentration of the single-cell suspension was adjusted, and sufficient volumes of the single-cell suspension were added to each well of the AggreWell™ 400 or AggreWell™ 800 to achieve approximately 500,000 iPSCs in a single-cell state per well. Then, each well was supplemented with mTeSR™1 or TeSR™-AOF medium, and 5 μM Y27632 was added to reach a total of 5 mL/well. Then, a balance plate filled with water was prepared to match the weight and position of the AggreWell™ microwell plate in the centrifuge. The cells were then pipetted gently up and down several times to ensure uniform distribution of cells across the wells. The AggreWell™ plate was immediately centrifuged at 100 g for 3 minutes using the balanced plate prepared in the previous step to force the cells into the microwells. The plate was observed under a microscope to verify that the cells were evenly distributed in the microwells. The cells were cultured under static conditions at 37° C., 5% CO2, and 95% humidity for 1 to 2 days. • 2) Shaking spheroidization. The concentration of the single-cell suspension was adjusted, and 1.5 million iPSCs in a single-cell state were transferred to a 6-well plate. Each well was supplemented with mTeSR™1 medium containing 5 μM Y27632, 50 ng/mL BMP4, and 10 μM CHIR99021 to achieve a volume of 3 mL per well. The culture plate was placed on an orbital shaker at 60 rpm, 70 rpm, 80 rpm, or 90 rpm for culture, and the wells with uniform sized spheroids were selected for subsequent culture.
# The iPSCs in the single-cell state were resuspended in the following four media after harvesting: 1) mTeSR™1+5 μM Y27632, 2) mTeSR™1+5 μM Y27632+50 ng/mL BMP4, 3) mTeSR™1+5 μM Y27632+10 μM CHIR99021, and 4) mTeSR™1+5 μM Y27632+50 ng/mL BMP4+10 μM CHIR99021. The cells were then cultured according to the method in Example 1. On Day 3 of differentiation, the cells were lysed, and mRNA was extracted and reverse-transcribed to obtain cDNA. The primers in Table 2 were used to measure the expression levels of OCT4, MIXL1, T, KDR, SCL, and CD34 in HSPCs on Day 3 of differentiation under the above-mentioned media conditions.
# iPSCs [3] = test: FACS proportion of CD34+ cells, additive in second differentiation medium; conditions: Day 12; 10 μM CHIR99021 or 0.75 μM SR1 added to second differentiation medium
# Method: After 1 to 2 days of cell spheroidization, the medium was replaced with a second differentiation medium, and then the medium was changed every 2 days for 4 to 5 days of culture. The components of the second differentiation medium included: StemPro-34 complete medium supplemented with 1% ITS-X, 1 μM β-mercaptoethanol, 50 μg/mL ascorbic acid, 1× GlutaMAX, 50 ng/mL VEGF, 50 ng/mL bFGF, 50 ng/mL BMP4, and 35 nM UM171. At this stage, the cells can be transferred to a closed system for static culture or shaking culture.
# After culturing for 3 days in the second differentiation medium, the medium was replaced with a third differentiation medium. The components of the third differentiation medium included: StemPro-34™ SFM complete medium supplemented with 1% ITS-X, 1 μM β-mercaptoethanol, 50 μg/mL ascorbic acid, 1× GlutaMAX, 50 ng/mL VEGF, 50 ng/mL bFGF, 50 ng/mL SCF, 10 ng/mL FLT3L, and 30 ng/mL TPO. The expression of CD34 or CD43, and CD44 was detected by FACS. […] The proportion and fold expansion of CD34^+ cells were detected at five time points: Day 8, Day 9, Day 10, Day 11, and Day 12. […]
# In order to further increase the yield and proportion of CD34^+ cells, 10 μM CHIR99021 or 0.75 μM SR1 was added to the second differentiation medium of Example 1, and the proportion of CD34^+ cells in the cell population on Day 12 was detected by FACS. […]
# iPSCs [4] = test: UM171 in second and/or third differentiation medium: yield of HSPCs and iNK cells; conditions: 35 nM UM171 added to second differentiation medium
# Method: 35 nM UM171 was added to the second differentiation medium and/or the third differentiation medium in Example 1, and the proportion of CD34^+ cells in the cell population on Day 12 and the proportion of CD56^+ cells in the cell population on Day 35 were detected by FACS. The results at these two time points are shown in FIG. 16, which indicate that the addition of UM171 to the second differentiation medium can increase the yield of HSPCs differentiated from iPSCs and the yield of iNK cells differentiated from HSPCs.
# as §1
# [5] = ABC294640 added to second and third differentiation medium
molecule,measurement,setting,value
O=C(NCc1ccncc1)C12CC3CC(C1)CC(c1ccc(Cl)cc1)(C3)C2 [ABC294640],yield of HSPCs,iPSCs [1]; [5],reducing
same,yield of iNK cells differentiated from these HSPCs,iPSCs [1]; [5],significantly increase
same,proliferation rate of iNK cells,iPSCs [1],increase
Cc1c[nH]c(-c2cnc(NCCNc3ccc(C#N)cn3)nc2-c2ccc(Cl)cc2Cl)n1 [CHIR99021],expression of OCT4,iPSCs [2],decreased significantly
same,expression of early mesoderm and mesoderm markers (MIXL1 and T),iPSCs [2],began to decrease
same,"expression of hemogenic endothelial lineage-related markers (KDR, SCL)",iPSCs [2],increased significantly
same,expression of the HSPC marker (CD34),iPSCs [2],significantly increased
same,proportion of CD34+ cells in the cell population,iPSCs [3],increase
"NC(=O)c1ccc[n+]([C@@H]2O[C@H](COP(=O)([O-])OP(=O)(O)OC[C@H]3O[C@@H](n4cnc5c(N)ncnc54)[C@H](O)[C@@H]3O)[C@@H](O)[C@H]2O)c1 [NAD^+, nicotinamide adenine dinucleotide]",proportion of CD56+ or CD45+ cells,iPSCs [1],without affecting
same,yield of iNK cells,iPSCs [1],increase
same,proliferation rate of iNK cells,iPSCs [1],increase
C[S+]([O-])c1ccc(-c2nc(-c3ccncc3)c(-c3ccc(F)cc3)[nH]2)cc1 (stereo not drawn) [SB203580],proportion of CD56+ or CD45+ cells,iPSCs [1],without affecting
same,yield of iNK cells,iPSCs [1],increase
same,proliferation rate of iNK cells,iPSCs [1],increase
CC(C)n1cnc2c(NCCc3ccc(O)cc3)nc(-c3csc4ccccc34)nc21 [SR1],proportion of CD34+ cells in the cell population,iPSCs [3],increase
Cn1nnc(-c2ccc3c(c2)[nH]c2nc(Cc4ccccc4)nc(NC4CCC(N)CC4)c23)n1 (stereo not drawn) [UM171],yield of HSPCs differentiated from iPSCs,iPSCs [4]; Day 12,increase
same,yield of iNK cells differentiated from HSPCs,iPSCs [4]; Day 35,increase
"BMP4: growth factor added to the first and second differentiation medium (protein, UniProt P12644 293-408, looked up) Bone morphogenetic protein 4: SPKHHSQRARKKNKNCRRHSLYVDFSDVGWNDWIVAPPGYQAFYCHGDCPFPLADHLNSTNHAIVQTLVNSVNSSIPKACCVPTELSAISMLYLDEYDKVVLKNYQEMVVEGCGCR",expression of OCT4,iPSCs [2],decreased significantly
same,expression of early mesoderm and mesoderm markers (MIXL1 and T),iPSCs [2],began to decrease
same,"expression of hemogenic endothelial lineage-related markers (KDR, SCL)",iPSCs [2],increased significantly
same,expression of the HSPC marker (CD34),iPSCs [2],significantly increased
